Tests used:
[1] = system: Meloidogyne incognita; assay: Meloidogyne incognita test; type: in vivo; details: application rate 20 ppm; formation of galls on lettuce roots after 14 days
Protocol: Meloidogyne incognita Test
Solvent: 125.0 parts by weight of acetone
To produce an appropriate active ingredient formulation, 1 part by weight of active ingredient is mixed with the stated amount of solvent and the concentrate is diluted with water to the desired concentration.
Vessels are filled with sand, active ingredient solution, an egg/larvae suspension of the southern root-knot nematode (Meloidogyne incognita) and lettuce seeds. The lettuce seeds germinate and the plants develop. The galls develop on the roots.
After 14 days, the nematicidal efficacy in % is determined by the formation of galls. 100% means that no galls were found; 0% means that the number of galls on the treated plants corresponds to the untreated control.

[2] = logP determination by HPLC on a reversed-phase column (C18), EEC Directive 79/831 Annex V.A8; type: physicochemical; details: HPLC on reversed-phase column (C18)

For `O=C(NC1CC1)c1cc(-c2cnn(-c3c(Cl)cc(C(F)(F)F)c(F)c3Cl)c2)ccc1Cl` [I-T3-184], the efficacy [1] was 90% and the “log P” value [2] was 3.6.

For `N#CC1(NC(=O)c2cc(-c3cnn(-c4c(Cl)cc(C(F)(F)F)c(F)c4Cl)c3)ccc2Cl)CC1` [I-T3-185], the efficacy [1] was 90% and the “log P” value [2] was 3.6.

Source: patent US9758485B2, “Compounds for controlling arthropods” (priority 2013, dated 2017)
